Laboratory results published in patent US20240300949A1, “NOVEL CRYSTALLINE FORM OF 1-(8-BROMOPYRIDO[2,3-E][1,2,4]TRIAZOLO[4,3-A]PYRAZIN-4-YL)-N-METHYLAZETIDIN-3-AMINE HEMISUCCINATE” (JW PHARMACEUTICAL CORPORATION, priority 2021, published 2024).

Legend:
[1] = solid-state stability on micronization; type: physicochemical
[2] = solid-state stability on drying in vacuum oven at 60° C. (XRPD, FIG. 8); type: physicochemical
Excerpt: Form F is a channel hydrate and generally channel hydrates/solvates are not very stable since the solvent molecules easily can move in and out of the channels and causes collapse of the crystal lattice. In the case of form F the water molecules are placed in the same molecular plane as the succinate molecules which stabilize the hydrate and makes form F particularly useful for use in a solid pharmaceutical product, such as in a tablet. Furthermore, form F can be dried under moderate drying conditions such as in a vacuum oven at 60° C. […] Also form F has been found suitable for large scale drying.
FIG. 8: XRPD's of Form F stored in vacuum at 60° for different periods of time. At each time point of a quick XRPD (9 min) and a normal XRPD (1 hour) were recorded
XRPD patterns were collected with a PANalytical X'pert Empyrean diffractometer using an incident Cu Kα radiation and operating at 45 kV and 40 mA. The XRPD patterns were collected in the 2 theta range from 3 to 60 degrees with a step size of 0.013°, counting time of 198.645s and in transmission geometry. 25 repetitions were done and summarized. In the incident beam path, an parabolic shaped beam Cu W/Si (hybrid MPD) monochromator together with a 10 mm fixed mask, fixed anti-scatter slit ⅛° and fixed divergence slits of 1/16° were placed to line focus the Cu Kα X-rays through the sample and onto the detector. […]

histamine 4 receptor = histamine 4 receptor (Homo sapiens, UniProt Q9H3N8); settings: background statement, refers to U.S. Pat. No. 9,586,959; cited from earlier work
histamine 4 receptor, sequence (Q9H3N8 whole entry): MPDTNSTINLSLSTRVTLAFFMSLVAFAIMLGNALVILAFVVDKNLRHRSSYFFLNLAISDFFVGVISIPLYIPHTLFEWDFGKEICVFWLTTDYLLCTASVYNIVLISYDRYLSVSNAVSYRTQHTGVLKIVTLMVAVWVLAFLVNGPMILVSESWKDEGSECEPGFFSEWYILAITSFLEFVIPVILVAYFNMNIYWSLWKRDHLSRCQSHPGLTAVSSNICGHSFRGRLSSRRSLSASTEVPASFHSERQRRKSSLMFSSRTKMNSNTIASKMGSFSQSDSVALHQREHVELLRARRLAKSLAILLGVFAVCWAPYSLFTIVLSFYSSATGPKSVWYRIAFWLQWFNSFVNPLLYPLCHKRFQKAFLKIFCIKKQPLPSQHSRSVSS

[3] = test system: inflammatory cells such as mast cells and eosinophils; settings: background statement, refers to U.S. Pat. No. 9,586,959; cited from earlier work

Compound | stability of crystalline form on micronization [1] | crystal lattice stability on drying [2] | histamine 4 receptor inhibitory effect (histamine 4 receptor) | effect against histamine induced infiltration of inflammatory cells such as mast cells and eosinophils [3]
1-(8-bromopyrido[2,3-e][1,2,4]triazolo[4,3-a]pyrazin-4-yl)-N-methylazetidin-3-amine hemisuccinate monohydrate [form F] | tolerates micronization without undergoing amorphization | without collapsing the crystal lattice | – | –
CNC1CN(c2nc3ncc(Br)cc3n3cnnc23)C1 [1-(8-bromopyrido[2,3-e][1,2,4]triazolo[4,3-a]pyrazin-4-yl)-N-methylazetidin-3-amine] | – | – | strong | suppressive effects
